Results taken from US9550796B2, “Pyrrolopyrrolone derivatives and their use as BET inhibitors” (NOVARTIS AG, priority 2013, dated 2017).

What was measured:
[1] = molecular target: BRD4 (Homo sapiens (Human), UniProt O60885); assay: TR-FRET in-vitro binding assay for BRD4; conditions: 45 nM His-Brd4(44-477), acetyl-histone H4 (AcK 5, 8, 12, 16) peptide
Protocol: (§1) TR-FRET In-Vitro Binding Assays for BRD2, BRD3, and BRD4: All assays were performed in 384-well microtiter plates. […] Liquid handling and incubation steps were done on an Innovadyne Nanodrop Express equipped with a robotic arm (Thermo CatX, Perkin Elmer/Caliper Twister II) and an incubator (Liconic STX40, Thermo Cytomat 2C450). The assay plates were prepared by addition of 50 nl per well of compound solution in 90% DMSO HummingBird nanodispenser (Zinsser Analytic). […] Reactions were incubated at 30° C. for 35 minutes. […] After 35 minutes incubation at 30° C., plates were measured in a Perkin Elmer EnVision multilabel reader. […] The stock solutions were stored at […] if not used immediately. For the test procedure the vials were defrosted and identified by a scanner whereby a working sheet was generated that guided the subsequent working steps. Compound dilutions were made in 96 well plates. This format enabled the assay of maximally […] at 8 concentrations (single points) including 4 reference compounds, if desired (known BET inhibitors from the prior art, for this and other assays of the type disclosed herein). The dilution protocol included the production of “pre-dilution plates”, “master plates” and “assay plates”. Polypropylene 96-well plates were used as pre-dilution plates. […] All dilution steps were done on a HamiltonSTAR robot. […] Identical “assay plates” were then prepared by pipetting 50 nL each of compound dilutions of the “master plates” into 384-well “assay plates” by means of a HummingBird 384-channel dispenser. These plates were used directly for the assay which was performed in a total volume of 13.55 μL.

[2] = molecular target: BRD3 (Homo sapiens (Human), UniProt Q15059); assay: TR-FRET in-vitro binding assay for BRD3; conditions: 45 nM His-Brd3(20-477), acetyl-histone H4 (AcK 5, 8, 12, 16) peptide
Chain of BRD3 (Q15059 20-477): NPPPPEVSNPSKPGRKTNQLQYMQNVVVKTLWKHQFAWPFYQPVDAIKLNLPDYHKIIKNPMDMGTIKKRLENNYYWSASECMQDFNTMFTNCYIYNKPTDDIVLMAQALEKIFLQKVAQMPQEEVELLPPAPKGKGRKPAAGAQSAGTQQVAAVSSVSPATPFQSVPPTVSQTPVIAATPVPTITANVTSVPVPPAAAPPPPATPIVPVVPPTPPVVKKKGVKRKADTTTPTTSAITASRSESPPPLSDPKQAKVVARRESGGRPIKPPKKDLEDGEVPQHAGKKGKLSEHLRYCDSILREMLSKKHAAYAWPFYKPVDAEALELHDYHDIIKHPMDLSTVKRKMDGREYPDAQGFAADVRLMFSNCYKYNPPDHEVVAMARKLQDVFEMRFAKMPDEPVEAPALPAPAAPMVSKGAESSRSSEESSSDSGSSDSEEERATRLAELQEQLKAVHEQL
Protocol: as §1

[3] = molecular target: CREBBP (Homo sapiens (Human), UniProt Q92793); assay: AlphaScreen in-vitro binding assay for CREBBP; conditions: 324 nM His-CREBBP (1081-1197), acetyl-histone H4 (AcK 5, 8, 12) peptide
Chain of CREBBP (Q92793 1081-1197): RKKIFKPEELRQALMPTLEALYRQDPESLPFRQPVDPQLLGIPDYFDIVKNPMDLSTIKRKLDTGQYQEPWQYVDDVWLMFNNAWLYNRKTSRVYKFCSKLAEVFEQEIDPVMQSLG
Protocol: AlphaScreen In-Vitro Binding Assay for CREBBP
In order to assess bromodomain selectivity, we set up a binding assay using the bromodomain encoded by the CREBBP gene. […] The assay was started by stepwise addition of 4.5 μL per well of bromo domain protein (50 mM HEPES, pH 7.5, 0.005% Tween20, 0.02% BSA, 150 mM NaCl, 324 nM His-CREBBP (1081-1197) (custom production at Viva Biotech Ltd.)) and 4.5 μL per well of peptide solution (50 mM HEPES, pH 7.5, 0.005% Tween20, 0.02% BSA, 150 mM NaCl, 120 nM acetyl-histone H4 (AcK 5, 8, 12) (Biosyntan GmbH)). Reactions were incubated at 30° C. for 35 minutes. Subsequently 4.5 μL per well detection mix (50 mM HEPES, pH 7.5, 0.005% Tween20, 0.02% BSA, 150 mM NaCl, 45 μg/ml Ni-chelate acceptor beads, 45 μg/mL streptavidin-donor beads) (Perkin Elmer)) were added. After 60 minutes incubation at room temperature, plates were measured in a Perkin Elmer EnVision multilabel reader. IC50 values were determined from percent inhibition values at different compound concentrations by non-linear regression analysis.
Test compounds were dissolved in DMSO (10 mM) and transferred into 1.4 mL flat bottom or V-shaped Matrix tubes carrying a unique 2D matrix. The stock solutions were stored at […] if not used immediately. For the test procedure the vials were defrosted and identified by a scanner whereby a working sheet was generated that guided the subsequent working steps. Compound dilutions were made in 96 well plates. This format enabled the assay of maximally […] at 8 concentrations (single points) including 4 reference compounds, if desired (known BET inhibitors from the prior art, for this and other assays of the type disclosed herein). The dilution protocol included the production of “pre-dilution plates”, “master plates” and “assay plates”.
Polypropylene 96-well plates were used as pre-dilution plates. A total of 4 pre-dilution plates were prepared including 10 test compounds each on the plate positions A1-A10, one standard compound at A11 and one DMSO control at […]. All dilution steps were done on a HamiltonSTAR robot.
30 μL of individual compound dilutions including standard compound and controls of the 4 “pre-dilution plates” were transferred into a 384-well “master plate” including the following concentrations 10000, […], 1000, 300, 100, 30, 10 and 3 μM, respectively in 90% of DMSO.
Identical “assay plates” were then prepared by pipetting 50 nL each of compound dilutions of the “master plates” into 384-well “assay plates” by means of a HummingBird 384-channel dispenser. These plates were used directly for the assay which was performed in a total volume of 13.55 μL.

[4] = tested on: MV-4-11; assay: Cell growth inhibition assay (CellTiter-Glo), MV-4-11; type: cell-based, human; conditions: MV-4-11 cells, 4 days; for GI50: Homo sapiens, MV4-11, 96 h, half-maximal growth inhibition; for MV-4-11 TGI: total growth inhibition
Protocol: (§2) Cell Growth Inhibition Assay
(§3) The human leukemia cell lines MV-4-11, THP-1 and K-562 were employed to characterize the effect of BET inhibitors on cellular proliferation and viability. Cells were obtained from the American Type Culture Collection (ATCC) and cultured at 37° C. in a humidified 5% CO2 incubator in the following media: MV-4-11: DMEM high glucose (Animed #1-26F01-I), 10% FCS (Animed #2-01F26-I), 4 mM L-Glutamine (Animed #5-10K50), 1 mM Sodium Pyruvate (Animed # G03625P), 1× Penicillin-Streptomycin (Animed # F12478P); K-562: Iscove's MEM (Animed #1-28F16-I), 10% FCS (Animed #2-01F26-I), 4 mM L-Glutamine (Animed #5-10K50), 1× Penicillin-Streptomycin (Animed # F12478P); THP-1: RPMI-1640 (Animed #1-41F01-I), 10% FCS (Animed #2-01F26-I), 2 mM L-Glutamine (Animed #5-10K50), 10 mM HEPES (Animed #5-31F100), 1 mM Sodium Pyruvate (Animed # G03625P), 1× Penicillin-Streptomycin (Animed # F12478P). The AML lines MV-4-11 and THP-1 are very sensitive to BET inhibitors and show massive cell death upon BET inhibition (Zuber et al., Nature, 478 (2011), 524-8). Compound-mediated suppression of cell proliferation/viability was assessed by quantification of cellular ATP levels using the CellTiter-Glo (CTG) reagent (Promega). Briefly, cells were seeded in 20 μl fresh medium into 384-well plates, followed by addition of 5 μL medium containing compound dilutions at 5-fold their final intended concentration. Dose-response effects were assessed by 3-fold serial dilutions of the test compound, starting at 10 μM. Following incubation of the cells for 4 days at 37° C. and 5% CO2, the effect of inhibitors on cell viability was quantified following addition of 20 μl CTG and luminescence quantification (integration time: 100 ms) as per vendor manual, using a correspondingly equipped Tecan M200 multi-mode platereader (TECAN, Switzerland). For data analysis, the assay background value determined in wells containing medium, but no cells, was subtracted from all data points. To enable differentiation of cytotoxic from cytostatic compounds, the number of viable cells is assessed relative to that observed at the time of compound addition using a separate cell plate (day 0). The effect of a particular test compound concentration on cell proliferation/viability is expressed as percentage of the background- and day 0-corrected luminescence reading obtained for cells treated with vehicle only (DMSO, 0.1% final concentration), which is set as 100%, whereas that luminescence reading for wells containing medium is set as −100%. Compound concentrations leading to half-maximal (IC50) and total growth inhibition (TGI) were determined using standard four parameter curve fitting.

[5] = tested on: THP-1; assay: Cell growth inhibition assay (CellTiter-Glo), THP-1; type: cell-based, human; conditions: THP-1 cells, 4 days; for GI50: Homo sapiens, 96 h, half-maximal growth inhibition; for THP-1 TGI: total growth inhibition
Protocol: as §2, §3

[6] = tested on: K-562; assay: Cell growth inhibition assay (CellTiter-Glo), K-562; type: cell-based, human; conditions: K-562 cells, 4 days; for GI50: Homo sapiens, K562, 96 h, half-maximal growth inhibition; for K-562 TGI: total growth inhibition
Protocol: as §2, §3

Compound | IC50 [1] [nM] | IC50 [2] [nM] | IC50 [3] [nM] | GI50 [4] [nM] | GI50 [5] [nM] | GI50 [6] [nM] | MV-4-11 TGI [4] [nM] | THP-1 TGI [5] [nM] | K-562 TGI [6] [nM]
CNC(=O)c1cn(C)c2c1C(=O)N(c1cc(C)c3nnn(C)c3c1)C2c1ccc(Cl)cc1 (stereo not drawn) [Example 98, 6-(4-chlorophenyl)-5-(1,4-dimethyl-1H-benzo[d][1,2,3]triazol-6-yl)-N,1-dimethyl-4-oxo-1,4,5,6-tetrahydropyrrolo[3,4-b]pyrrole-3-carboxamide] | < 11 | 12 | 6700 | 4.95 | 5.57 | 37.3 | 12.53 | 15.97 | >8200
Cc1cn(C)c2c1C(=O)N(c1cc(C)c3nnc(C(F)F)n3c1)C2c1ccc(Cl)cc1 (stereo not drawn) [Example 107, 6-(4-chlorophenyl)-5-(3-(difluoromethyl)-8-methyl-[1,2,4]triazolo[4,3-a]pyridin-6-yl)-1,3-dimethyl-5,6-dihydropyrrolo[3,4-b]pyrrol-4(1H)-one] | 17 | 21 | 27900 | 7.2 | 15.4 | 197 | 22.95 | 22 | >10000
CNC(=O)Nc1cn(C)c2c1C(=O)N(c1cc(C)c3nnc(C(F)F)n3n1)C2c1ccc(Cl)cc1 (stereo not drawn) [Example 111, 1-(6-(4-chlorophenyl)-5-(3-(difluoromethyl)-8-methyl-[1,2,4]triazolo[4,3-b]pyridazin-6-yl)-1-methyl-4-oxo-1,4,5,6-tetrahydropyrrolo[3,4-b]pyrrol-3-yl)-3-methylurea] | < 11 | 19 | > 37000 | 13.2 | 10.7 | 113 | 31.2 | 30.1 | >10000
Cc1cc(N2C(=O)c3c(C(=O)NCCN(C)C)cn(C)c3C2c2ccc(Cl)cc2)cc2c1nnn2C (stereo not drawn) [Example 112, 6-(4-chlorophenyl)-5-(1,4-dimethyl-1H-benzo[d][1,2,3]triazol-6-yl)-N-(2-(dimethylamino)ethyl)-1-methyl-4-oxo-1,4,5,6-tetrahydropyrrolo[3,4-b]pyrrole-3-carboxamide] | 120 | 64 | 17300 | 19.4 | 39.3 | 409 | 34.75 | 95.95 | >10000

The next lines start with results.

IC50 [1] [nM] | IC50 [2] [nM] | IC50 [3] [nM] | GI50 [4] [nM] | GI50 [5] [nM] | GI50 [6] [nM] | Compound | MV-4-11 TGI [4] [nM] | THP-1 TGI [5] [nM] | K-562 TGI [6] [nM]
16 | 19 | > 37000 | 43.2 | 32.3 | 322 | CNC(=O)c1cn(C)c2c1C(=O)N(c1cc(C)c3nnc(C(F)F)n3n1)C2c1ccc(Cl)cc1 (stereo not drawn) [Example 108, 6-(4-chlorophenyl)-5-(3-(difluoromethyl)-8-methyl-[1,2,4]triazolo[4,3-b]pyridazin-6-yl)-N,1-dimethyl-4-oxo-1,4,5,6-tetrahydropyrrolo[3,4-b]pyrrole-3-carboxamide] | 78.35 | 72.75 | >10000
23 | 20 | > 37000 | 19.4 | 17.3 | 114 | CC(=O)Nc1cn(C)c2c1C(=O)N(c1cc(C)c3nnc(C(F)F)n3n1)C2c1ccc(Cl)cc1 (stereo not drawn) [Example 109, N-(6-(4-chlorophenyl)-5-(3-(difluoromethyl)-8-methyl-[1,2,4]triazolo[4,3-b]pyridazin-6-yl)-1-methyl-4-oxo-1,4,5,6-tetrahydropyrrolo[3,4-b]pyrrol-3-yl)acetamide] | 40.75 | 38.6 | >10000
30 | 37 | > 37000 | 10 | 257 | 211 | Cc1cc(N2C(=O)c3c(NC(=O)CCN(C)C)cn(C)c3C2c2ccc(Cl)cc2)nn2c(C(F)F)nnc12 (stereo not drawn) [Example 110, N-(6-(4-chlorophenyl)-5-(3-(difluoromethyl)-8-methyl-[1,2,4]triazolo[4,3-b]pyridazin-6-yl)-1-methyl-4-oxo-1,4,5,6-tetrahydropyrrolo[3,4-b]pyrrol-3-yl)-3-(dimethylamino)propanamide] | 25.5 | 293.5 | 5640
